Results on two molecules are retold here after patent US10314894B2, “Treatment of cardio-renal disease using PCSK6” (THE CLEVELAND CLINIC FOUNDATION, priority 2014, dated 2019).

The assay relates to corin activation cleavage. Briefly: Protease inhibitors on corin activation cleavage in HEK293 cells expressing corin (Western blotting). In kind it is cell-based, human. As to conditions: 24 h, transfected HEK293 cells. On the procedure:
HEK293 cells were cultured in DMEM with 10% fetal bovine serum (FBS). HL-1 cardiomyocytes were cultured in Claycomb medium with 10% FBS, and 4 mM L-glutamine. All cells were cultured at 37° C. in humidified incubators with 5% CO2.
HEK293 and HL-1 cells were transfected with corin or PCSK6 expression plasmids. After 48-72 h, cells were lysed in a buffer containing 25 mM Tris-HCl, pH 7.4, 150 mM NaCl, 1 mM EDTA, 1% (v/v) NP-40, and 1% (v/v) protease inhibitor cocktail. Recombinant corin and PCSK6 proteins were immunoprecipitated with an anti-V5 or anti-flag antibody. Western blotting was carried out to analyze corin expression and activation or PCSK6 expression with or without reducing agents. Percentage of corin activation (corin-p vs. corin fragments) was quantified by densitometric analysis of Western blots.
To identify the corin activator, corin activation cleavage was examined in HEK293 and HL-1 cells expressing corin in the presence of protease inhibitors including benzamidine (5 mM), GM6001 (50 μM), dec-RVKR-cmk (20 μM), or ALLM (N-acetyl-leucyl-leucyl-methionine 50 μM). Liao et al., J Biol Chem 282, 27728-27735 (2007). The inhibitors were added to the cells in separate wells. After 24 h, cell lysates were prepared and corin protein was analyzed by Western blotting.
For orientation: Immunoblotting shows a protein as a band on a membrane.

Peptide text beside a SMILES is read from it.

Consider `N=C(N)c1ccccc1` [benzamidine], for which the “corin activation (~40-kDa band reduced, ~190-kDa zymogen band increased)” value (benzamidine 5 mM) is given as “corin activation cleavage was inhibited”.
For the molecule `CCCCCCCCCC(=O)N[C@@H](CCCN=C(N)N)C(=O)N[C@H](C(=O)N[C@@H](CCCCN)C(=O)N[C@@H](CCCN=C(N)N)C(=O)CCl)C(C)C` [dec-RVKR-cmk] (HELM PEPTIDE1{[CCCCCCCCCC(=O)[*:2]].R.V.K.R.[ClC[*:1]]}$$$$V2.0), the “corin activation (~40-kDa band reduced, ~190-kDa zymogen band increased)” value was “corin activation was inhibited” (dec-RVKR-cmk 20 μM) and “corin activation cleavage was inhibited” (dec-RVKR-cmk 20 μM, listed as RVKR-cmk).
